BindingDB's records for PubMed 30282319 (Polytechnic Institute of Braganca, 2018)
Values after ≈ are worked out from the molar mass of the structure shown.

biological target: alpha-glucosidase (Saccharomyces cerevisiae); experiment: Inhibition of Saccharomyces cerevisiae alpha-glucosidase assessed as release of p-nitrophenol using pNPG as substrate preincubated for 15 mins followed by substrate addition and measured after 15 mins by plate reader analysis

SMILES | IC50
COc1c(O)cc2oc3ccc(O)c(OC)c3c(=O)c2c1O | 63 µg/mL (≈ 207 µM)
COc1ccc2oc3ccc(O)cc3c(=O)c2c1 | 77 µg/mL (≈ 318 µM)
O=c1c2cc(O)ccc2oc2cc(O)cc(O)c12 [1,3,7-trihydroxy-9H-xanthen-9-one] | 3.2 µg/mL (≈ 13.1 µM)
O=c1c2cc(O)ccc2oc2cccc(O)c12 [CHEBI:4946] | 36 µg/mL (≈ 158 µM)
COc1ccc(O)c2c(=O)c3cc(O)ccc3oc12 [CHEBI:67553] | 28 µg/mL (≈ 108 µM)

The next lines start with the values.

IC50 | SMILES
7.6 µg/mL (≈ 27.7 µM) | COc1c(O)cc2oc3ccc(O)cc3c(=O)c2c1O
59 µg/mL (≈ 185 µM) | COc1cc(OC)c2c(=O)c3c(O)c(OC)ccc3oc2c1O
13 µg/mL (≈ 47.4 µM) | COc1c(O)cc(O)c2c(=O)c3cc(O)ccc3oc12
13 µg/mL (≈ 45.1 µM) | COc1cc(O)c2c(=O)c3cc(O)ccc3oc2c1OC
49 µg/mL (≈ 180 µM) | COc1ccc2oc3ccc(O)cc3c(=O)c2c1OC
